In patent US12201649B2, “Pharmaceutical composition comprising oxidizable biphenol and manganese porphyrin, and method of using the same” (Villanova University, priority 2021, dated 2025):
Where two headings read alike, the source gives them in different places.

Columns and labels:
[1] = tested on: MDA-MB-231 breast cancer cells; conditions: 24 hours; for efficacy at killing breast cancer cells compared with MnTM4PyP: when combined with tBHQ
Jurkat cells [2] = assay: apoptosis (Annexin-PE) and necrosis (RedDot 2) by flow cytometry, 4 hours; format: cell-based, human; conditions: for effect on Jurkat cells (alive, apoptotic, necrotic): 4 hours
Procedure: Referring to FIGS. 4, 5, 6, 8, 12 and 15, cells were treated with the indicated compounds or vehicle for 4 hours in RPMI medium with 10% fetal bovine serum (FBS). RPMI medium, also known as RPMI 1640, is a growth medium used in cell culture. In these and other figures, “vehicle” represents when a treatment compound is omitted and replaced with the vehicle that the compound is dissolved in. Thus, when a MnP is omitted, water is added in its place. When an oxidizable phenol is omitted, DMSO is added for a resulting final concentration in the cell media of 0.05% DMSO. Apoptosis was measured using Annexin-PE, and necrosis was measured with RedDot 2. Fluorescence was read on an Accuri C6 flow cytometer with excitation from a 488 nm laser, and FL2 and FL4 filters were used for Annexin-PE and RedDot2, respectively. 10,000 events were acquired. Flow cytometry data was analyzed using Flowlogic software from Inivai Technologies of Australia. […] Percentage of alive, apoptotic, or necrotic cells was determined and graphed as the average±the standard deviation.
The combination of tBHQ and MnTMPyP is toxic to Jurkat cells, a CD4+ T-cell leukemic cell line. […] Cells that were alive, apoptotic or necrotic were determined using flow cytometry. Two specimens (biological duplicates) were measured for each sample.
Cells that were alive, apoptotic or necrotic were determined using flow cytometry, with n=2 (biological duplicates).
Referring to FIG. 12, unlike tBHQ, dtBHQ has no toxicity to Jurkat cells in combination with MnTMPyP. […] Cells that were alive, apoptotic or necrotic were determined using flow cytometry, with n=2 (biological duplicates).
Referring to FIG. 15, Jurkat cell death upon exposure to MNTE-2-PyP and MnTNBuOE-2-PyP (labelled as Mn2E and Mn2BuOE, respectively, in FIG. 15) are compared with that of exposure to Mn4M. […] Cells that were alive, apoptotic or necrotic were determined using flow cytometry, with n=2 (technical duplicates).
Jurkat cells were treated with 5 mM ascorbic acid or 5 μM tBHQ with or without 12 μM MnTMPyP for 4 h. Apoptosis was measured using Annexin-PE, necrosis with RedDot 2. […]

NALM6 cells = assay: as above; format: cell-based; conditions: tBHQ or 12 μM MnTMPyP alone
[3] = tested on: PC3 prostate cancer cells; assay: cells; conditions: 24 h
Jurkat cells [4] = assay: cells; conditions: Homo sapiens, 24 h
Procedure: Referring to FIG. 16, Jurkat cells were treated with the indicated compounds for 24 hours in RPMI with 2% FBS. Live cells were measured using the CellTiter-Fluor dye, which enters living cells and is cleaved by intracellular proteases to release the fluorescent coumarin molecule. Fluorescence was measured on a ClarioStar Plus plate reader in a 96-well plate format with excitation at 390 nm and emission capture at 505 nm. […] Data are graphed as the average±the standard error, along with the fit.
The relative number of viable cells in a sample was determined using CellTiter-Fluor dye with relative fluorescence units (RFU). […] The LC50 value for a compound is the concentration required to kill half of the cells tested after a specified test duration such as 24 hours.

[5] = tested on: MDA-MB-231 breast cancer cells; assay: cells; conditions: Homo sapiens, MDA-MB-231, 24 h
[6] = read-out: LC50 for tBHQ in the presence of Mn2BuOE

CCCCOCC[n+]1ccccc1-c1c2nc(c(-c3cccc[n+]3CCOCCCC)c3ccc([nH]3)c(-c3cccc[n+]3CCOCCCC)c3nc(c(-c4cccc[n+]4CCOCCCC)c4ccc1[nH]4)C=C3)C=C2.[Mn+3] [Mn2BuOE]
efficacy at killing breast cancer cells compared with MnTM4PyP [1]: higher efficacy | concentration at which Mn2BuOE is active ([1]; with 20 μM tBHQ): less than 1 μM | toxicity of Mn2BuOE alone ([1]; without tBHQ, tested concentrations): not toxic at tested concentrations | effectiveness at 1.2 μM versus 12 μM (Jurkat cells [2]; in combination with 5 μM tBHQ, four hours): almost as effective at 1.2 μM as it was at 12 μM

CC[n+]1ccccc1-c1c2nc(c(-c3cccc[n+]3CC)c3ccc([n-]3)c(-c3cccc[n+]3CC)c3nc(c(-c4cccc[n+]4CC)c4ccc1[n-]4)C=C3)C=C2.[Mn+3] [Mn2TE2]
efficacy at killing breast cancer cells compared with MnTM4PyP [1]: higher efficacy

C[n+]1ccc(-c2c3nc(c(-c4cc[n+](C)cc4)c4ccc([nH]4)c(-c4cc[n+](C)cc4)c4nc(c(-c5cc[n+](C)cc5)c5ccc2[nH]5)C=C4)C=C3)cc1.[Mn+3] [MnTMPyP, Mn(III)tetrakis(1-methyl-4-pyridyl)porphyrin]
toxicity to NALM6 cells, compound individually (NALM6 cells): low toxicity | effect on Jurkat cells (alive, apoptotic, necrotic) (Jurkat cells [2]; 12 μM MnTMPyP alone): largely unaffected

CC(C)(C)c1cc(O)ccc1O [tBHQ, tert-butylhydroquinone]
toxicity of tBHQ alone ([1]; at 100 μM tBHQ): no toxicity observed | CC50 ([3]; read-out: LC50 for tBHQ alone): > 100 µM | CC50 [3, 6]: 16 ± 7 µM | CC50 (Jurkat cells [4]; read-out: LC50 for tBHQ alone): 80 ± 30 µM | CC50 (Jurkat cells [4]; [6]): 1.29 ± 0.04 µM | toxicity to NALM6 cells, compound individually (NALM6 cells): low toxicity | CC50 ([5]; read-out: LC50 for tBHQ alone): > 100 µM | CC50 ([5]; read-out: LC50 for tBHQ in the presence of MnTMPyP): 20 µM | effect on Jurkat cells (alive, apoptotic, necrotic) (Jurkat cells [2]; 5 μM to 20 μM tBHQ alone): largely unaffected
